Laboratory results reported in US20260001928A1 (CORTERIA PHARMACEUTICALS, priority 2022, published 2026).
*1 amine or outer side, *2 acyl side, *3 side chain or, on linkers, in order; H or OH if unused. Where a SMILES comes first, the peptide text is derived from it. Side-chain parts run from the residue outwards. [ ]: non-standard residue; d: D form. The star is where a group is joined. C20 diacid = O=C(O)CCCCCCCCCCCCCCCCCCC(=O)*; γGlu = O=C(O)[C@H](CCC(=O)[*:2])N[*:1]; AEEA = NCCOCCOCC(=O)O; Aib = CC(C)(N)C(=O)O

B1: peptide of SEQ ID NO: 244 (peptide)
peptide: Ac-IVLSLD[dV]PIKLK([γGlu-γGlu-C20 diacid])KILLEQEKQKAQREQAETN[Aib]QILAQV-NH2
SMILES: CC[C@H](C)[C@H](NC(C)=O)C(=O)N[C@H](C(=O)N[C@@H](CC(C)C)C(=O)N[C@@H](CO)C(=O)N[C@@H](CC(C)C)C(=O)N[C@@H](CC(=O)O)C(=O)N[C@@H](C(=O)N1CCC[C@H]1C(=O)N[C@H](C(=O)N[C@@H](CCCCN)C(=O)N[C@@H](CC(C)C)C(=O)N[C@@H](CCCCNC(=O)CC[C@H](NC(=O)CC[C@H](NC(=O)CCCCCCCCCCCCCCCCCCC(=O)O)C(=O)O)C(=O)O)C(=O)N[C@@H](CCCCN)C(=O)N[C@H](C(=O)N[C@@H](CC(C)C)C(=O)N[C@@H](CC(C)C)C(=O)N[C@@H](CCC(=O)O)C(=O)N[C@@H](CCC(N)=O)C(=O)N[C@@H](CCC(=O)O)C(=O)N[C@@H](CCCCN)C(=O)N[C@@H](CCC(N)=O)C(=O)N[C@@H](CCCCN)C(=O)N[C@@H](C)C(=O)N[C@@H](CCC(N)=O)C(=O)N[C@@H](CCCNC(=N)N)C(=O)N[C@@H](CCC(=O)O)C(=O)N[C@@H](CCC(N)=O)C(=O)N[C@@H](C)C(=O)N[C@@H](CCC(=O)O)C(=O)N[C@H](C(=O)N[C@@H](CC(N)=O)C(=O)NC(C)(C)C(=O)N[C@@H](CCC(N)=O)C(=O)N[C@H](C(=O)N[C@@H](CC(C)C)C(=O)N[C@@H](C)C(=O)N[C@@H](CCC(N)=O)C(=O)N[C@H](C(N)=O)C(C)C)[C@@H](C)CC)[C@@H](C)O)[C@@H](C)CC)[C@@H](C)CC)C(C)C)C(C)C

Key:
human CRF2a receptor = biological target: T1, human CRF2a receptor (Homo sapiens, UniProt Q13324); test: Activity at human CRF2a receptor, cAMP functional assay in TeloHEAC cells; format: cell-based; conditions: TeloHEAC cells stably expressing human CRF2a receptor, relative to urocortin 2 (100 nM = 100%)
T1 construct: expressed in transfected cells; host or cells: TeloHEAC cells
T1 sequence (Q13324 1-411): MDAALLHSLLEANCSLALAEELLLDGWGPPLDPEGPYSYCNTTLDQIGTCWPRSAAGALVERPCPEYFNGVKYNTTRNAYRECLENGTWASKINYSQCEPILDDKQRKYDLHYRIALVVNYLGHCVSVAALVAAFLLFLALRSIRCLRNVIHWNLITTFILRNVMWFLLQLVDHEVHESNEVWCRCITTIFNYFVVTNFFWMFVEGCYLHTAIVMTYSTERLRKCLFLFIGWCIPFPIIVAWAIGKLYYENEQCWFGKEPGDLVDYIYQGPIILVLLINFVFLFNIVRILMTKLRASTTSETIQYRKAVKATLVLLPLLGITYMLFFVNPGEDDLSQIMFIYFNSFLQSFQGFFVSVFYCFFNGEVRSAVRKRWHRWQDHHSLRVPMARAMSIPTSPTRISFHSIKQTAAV
Procedure, shortened: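 cAMP accumulation was measured by HTRF 665/620 nm ratio after 30 min at 37° C compound exposure (16 twofold dilutions) of CRF2a-expressing TeloHEAC cells, 10000/well, in HEPES-buffered HBSS plus IBMX. Activity was normalised to urocortin 2 at 100 nM (100%), and EC50 was the concentration giving half-maximal activation.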

CFR1R receptor = biological target: T2, CFR1R receptor (Homo sapiens, UniProt P34998); test: Activity at anti-target CFR1R receptor, cAMP assay in CRF1R-overexpression CHO-K1 cells; format: cell-based; conditions: 100% = Sauvagine at 100 nM; for EC50: cAMP
T2 construct: host or cells: CHO-K1 (clone 2)
T2 sequence (P34998 24-415): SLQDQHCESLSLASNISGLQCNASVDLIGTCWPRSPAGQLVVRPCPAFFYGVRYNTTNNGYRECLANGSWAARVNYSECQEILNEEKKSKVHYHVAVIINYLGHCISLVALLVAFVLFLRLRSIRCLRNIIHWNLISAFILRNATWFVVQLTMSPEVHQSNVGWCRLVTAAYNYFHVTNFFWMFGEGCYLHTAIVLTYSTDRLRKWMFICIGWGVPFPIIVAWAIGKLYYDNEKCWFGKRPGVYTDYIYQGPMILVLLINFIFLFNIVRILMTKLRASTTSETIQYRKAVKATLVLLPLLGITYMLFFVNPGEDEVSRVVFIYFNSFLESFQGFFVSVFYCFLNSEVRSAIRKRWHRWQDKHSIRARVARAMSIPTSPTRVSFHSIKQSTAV
Procedure, shortened: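 Signal is normalised to 100 nM Sauvagine, taken as 100% activation, in clone 2 cells plated at a final 4000 cells/well from frozen stocks.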

rat CRF2 a = biological target: T3, rat CRF2 a (Rattus norvegicus, UniProt P47866); test: Activity at rat CRF2 a, cAMP assay in A7R5 rat aortic smooth muscle cells; format: cell-based; conditions: 0% HSA, 100% = Sauvagine at 100 nM
T3 construct: host or cells: A7R5 rat aortic smooth muscle cells
T3 sequence (P47866 27-431 isoform P47866-2 limits assumed): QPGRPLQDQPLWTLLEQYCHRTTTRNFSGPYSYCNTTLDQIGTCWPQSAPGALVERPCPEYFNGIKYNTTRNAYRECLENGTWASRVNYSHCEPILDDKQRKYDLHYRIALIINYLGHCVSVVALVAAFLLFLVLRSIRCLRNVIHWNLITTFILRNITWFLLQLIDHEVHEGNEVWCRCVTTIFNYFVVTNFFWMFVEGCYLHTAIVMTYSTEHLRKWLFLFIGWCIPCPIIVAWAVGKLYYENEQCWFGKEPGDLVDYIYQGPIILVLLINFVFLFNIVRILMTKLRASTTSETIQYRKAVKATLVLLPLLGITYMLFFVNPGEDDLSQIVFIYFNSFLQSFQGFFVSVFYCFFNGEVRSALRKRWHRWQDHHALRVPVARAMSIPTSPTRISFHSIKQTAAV
Description: The A7R5 rat aortic smooth muscle cell line used in this study was purchased from ATCC.
Cells were grown in a 10 cm dish at 37° C./5% CO2 in medium (DMEM/10% FBS) to near confluence. At that stage, cells were harvested, resuspended to 10 million/mL in culture medium and with 5% DMSO. 1 mL vial aliquots were slowly frozen to −80° C. in isopropanol and then transferred in liquid nitrogen for storage.
These vials were used to run the experiment following the procedure reported in the previous paragraph, except for the compound used in the control well to define the 100% activation (Sauvagine at 100 nM) and the cell density (final cell density: 5000 cells/well).

[1] = biological target: T4, CRF1R (corticotropin-releasing factor receptor 1), on the CRF1R-overexpression CHO-K1 cell line clone 2 (UniProt P34998 24-415, limits assumed); test: cell-based or functional assay
T4 sequence (looked up): T2 sequence (P34998 24-415)

[2] = biological target: Rat CRF2 a (corticotropin-releasing factor receptor 2), on the A7R5 rat aortic smooth muscle cell line (rat, UniProt P47866 20-411); test: cell-based or functional assay
Chain of Rat CRF2 a (corticotropin-releasing factor receptor 2), on the A7R5 rat aortic smooth muscle cell line (P47866 20-411): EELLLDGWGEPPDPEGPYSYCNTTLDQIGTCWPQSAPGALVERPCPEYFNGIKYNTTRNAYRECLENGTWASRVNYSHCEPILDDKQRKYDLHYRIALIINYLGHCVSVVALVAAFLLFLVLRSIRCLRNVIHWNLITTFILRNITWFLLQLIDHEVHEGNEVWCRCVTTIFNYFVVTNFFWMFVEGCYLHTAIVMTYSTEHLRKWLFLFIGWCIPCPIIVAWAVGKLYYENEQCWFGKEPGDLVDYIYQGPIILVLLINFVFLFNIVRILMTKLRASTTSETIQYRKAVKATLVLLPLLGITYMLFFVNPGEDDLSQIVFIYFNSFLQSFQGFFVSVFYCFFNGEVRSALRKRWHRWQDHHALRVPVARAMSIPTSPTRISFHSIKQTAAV

Row | Molecule | EC50 (human CRF2a receptor) [nM] | Emax (% I) (CFR1R receptor) | EC50 (CFR1R receptor) [nM] | EC50 (rat CRF2 a) [nM] | EC50 [nM] (cAMP, CRF1R-overexpression CHO-K1 cells) [1] | Emax (% I) (cAMP, 100% = Sauvagine at 100 nM) [1] | EC50 [nM] 0% HSA (cAMP, A7R5 rat aortic smooth muscle cells) [2] [nM]
1 | CC[C@H](C)[C@H](NC(C)=O)C(=O)N[C@H](C(=O)N[C@@H](CC(C)C)C(=O)N[C@@H](CO)C(=O)N[C@@H](CC(C)C)C(=O)N[C@@H](CC(=O)O)C(=O)N[C@@H](C(=O)N1CCC[C@H]1C(=O)N[C@H](C(=O)N[C@@H](CCCCN)C(=O)N[C@@H](CC(C)C)C(=O)N[C@@H](CCCCNC(=O)CC[C@H](NC(=O)CC[C@H](NC(=O)CCCCCCCCCCCCCCCCCCC(=O)O)C(=O)O)C(=O)O)C(=O)N[C@@H](CCCCN)C(=O)N[C@H](C(=O)N[C@@H](CC(C)C)C(=O)N[C@@H](CC(C)C)C(=O)N[C@@H](CCC(=O)O)C(=O)N[C@@H](CCC(N)=O)C(=O)N[C@@H](CCC(=O)O)C(=O)N[C@@H](CCCCN)C(=O)N[C@@H](CCC(N)=O)C(=O)N[C@@H](CCCCN)C(=O)N[C@@H](CCCCN)C(=O)N[C@@H](CCC(N)=O)C(=O)N[C@@H](CCCNC(=N)N)C(=O)N[C@@H](CCC(=O)O)C(=O)N[C@@H](CCC(N)=O)C(=O)N[C@@H](C)C(=O)N[C@@H](CCC(=O)O)C(=O)N[C@H](C(=O)N[C@@H](CC(N)=O)C(=O)NC(C)(C)C(=O)N[C@@H](CCC(N)=O)C(=O)N[C@H](C(=O)N[C@@H](CC(C)C)C(=O)N[C@@H](C)C(=O)N[C@@H](CCC(N)=O)C(=O)N[C@H](C(N)=O)C(C)C)[C@@H](C)CC)[C@@H](C)O)[C@@H](C)CC)[C@@H](C)CC)C(C)C)C(C)C [compound 243] (Ac-IVLSLD[dV]PIKLK([γGlu-γGlu-C20 diacid])KILLEQEKQKKQREQAETN[Aib]QILAQV-NH2) | 0.13 | 8 | > 250 | 0.09 |  |  | 
2 | CC[C@H](C)[C@H](NC(C)=O)C(=O)N[C@H](C(=O)N[C@@H](CC(C)C)C(=O)N[C@@H](CO)C(=O)N[C@@H](CC(C)C)C(=O)N[C@@H](CC(=O)O)C(=O)N[C@@H](C(=O)N1CCC[C@H]1C(=O)N[C@H](C(=O)N[C@@H](CCCCN)C(=O)N[C@@H](CC(C)C)C(=O)N[C@@H](CCCCNC(=O)COCCOCCNC(=O)CC[C@H](NC(=O)CCCCCCCCCCCCCCCCCCC(=O)O)C(=O)O)C(=O)N[C@@H](CCCCN)C(=O)N[C@H](C(=O)N[C@@H](CC(C)C)C(=O)N[C@@H](CC(C)C)C(=O)N[C@@H](CCC(=O)O)C(=O)N[C@@H](CCC(N)=O)C(=O)N[C@@H](CCC(=O)O)C(=O)N[C@@H](CCCCN)C(=O)N[C@@H](CCC(N)=O)C(=O)N[C@@H](CCCCN)C(=O)N[C@@H](C)C(=O)N[C@@H](CCC(N)=O)C(=O)N[C@@H](CCCNC(=N)N)C(=O)N[C@@H](CCC(=O)O)C(=O)N[C@@H](CCC(N)=O)C(=O)N[C@@H](C)C(=O)N[C@@H](CCC(=O)O)C(=O)N[C@H](C(=O)N[C@@H](CC(N)=O)C(=O)NC(C)(C)C(=O)N[C@@H](CCC(N)=O)C(=O)N[C@H](C(=O)N[C@@H](CC(C)C)C(=O)N[C@@H](C)C(=O)N[C@@H](CCC(N)=O)C(=O)N[C@H](C(N)=O)C(C)C)[C@@H](C)CC)[C@@H](C)O)[C@@H](C)CC)[C@@H](C)CC)C(C)C)C(C)C [compound 232] (Ac-IVLSLD[dV]PIKLK([AEEA-γGlu-C20 diacid])KILLEQEKQKAQREQAETN[Aib]QILAQV-NH2) | 0.12 | 13 | > 250 | 0.4 |  |  | 
3 | CC[C@H](C)[C@H](NC(C)=O)C(=O)N[C@H](C(=O)N[C@@H](CC(C)C)C(=O)N[C@@H](CO)C(=O)N[C@@H](CC(C)C)C(=O)N[C@@H](CC(=O)O)C(=O)N[C@@H](C(=O)N1CCC[C@H]1C(=O)N[C@H](C(=O)N[C@@H](CCCCN)C(=O)N[C@@H](CC(C)C)C(=O)N[C@@H](CCCCNC(=O)COCCOCCNC(=O)COCCOCCNC(=O)CC[C@H](NC(=O)CCCCCCCCCCCCCCCCCCC(=O)O)C(=O)O)C(=O)N[C@@H](CCCCN)C(=O)N[C@H](C(=O)N[C@@H](CC(C)C)C(=O)N[C@@H](CC(C)C)C(=O)N[C@@H](CCC(=O)O)C(=O)N[C@@H](CCC(N)=O)C(=O)N[C@@H](CCC(=O)O)C(=O)N[C@@H](CCCCN)C(=O)N[C@@H](CCC(N)=O)C(=O)N[C@@H](CCCCN)C(=O)N[C@@H](CCCCN)C(=O)N[C@@H](CCC(N)=O)C(=O)N[C@@H](CCCNC(=N)N)C(=O)N[C@@H](CCC(=O)O)C(=O)N[C@@H](CCC(N)=O)C(=O)N[C@@H](C)C(=O)N[C@@H](CCC(=O)O)C(=O)N[C@H](C(=O)N[C@@H](CC(N)=O)C(=O)NC(C)(C)C(=O)N[C@@H](CCC(N)=O)C(=O)N[C@H](C(=O)N[C@@H](CC(C)C)C(=O)N[C@@H](C)C(=O)N[C@@H](CCC(N)=O)C(=O)N[C@H](C(N)=O)C(C)C)[C@@H](C)CC)[C@@H](C)O)[C@@H](C)CC)[C@@H](C)CC)C(C)C)C(C)C [compound 238] (Ac-IVLSLD[dV]PIKLK([AEEA-AEEA-γGlu-C20 diacid])KILLEQEKQKKQREQAETN[Aib]QILAQV-NH2) | 0.11 | 12 | > 250 | 0.09 |  |  | 
4 | B1 |  |  |  |  | > 250 | 8 | 1.77
